Measurements published in patent publication US20230172867A1, “A METHOD FOR TREATING CANCER WITH AN ORAL DOSAGE FORM OF AN FGFR4 INHIBITOR” (Eisai R&D Management Co., Ltd., priority 2020, published 2023).
Entries after “also recorded” stand apart in the source; their conditions may differ. Read-outs that look alike come from different tables or passages of the source.

Experiment: Pharmacokinetic measurements of H3B-6527 capsules in patients (trial NCT02834780), plasma LC-MS/MS
Assay type: in vivo, human
Conditions: for Cmax / half-life / Tmax / AUC: human, plasma, oral; for Cmax: read-out: Cmax, geometric mean (CV%); for half-life: read-out: Half-life, geometric mean (CV%) (converted); for Tmax: read-out: Tmax, median (min-max); for AUC: read-out: AUC, geometric mean (CV%)
Text: A description of the first in human clinical trial for H3B-6527 can be found at the ClinicalTrials.gov by searching for trial identifier NCT02834780. In summary, the trial included a study population having the following characteristics: Adult patients ≥18 years old with advanced HCC or ICC; Progression after at least one prior therapy; ECOG score of 0 or 1; Well compensated liver function; FGF19-positive (dose expansion phase only); Excluded if patients have significant active infections [except hepatitis B virus (HBV) and hepatitis C virus (HCV)], gastric or esophageal varices, or previous FGF19-FGFR4 targeted therapy.
Blood samples are collected at the planned time points from each patient and centrifuged. The plasma portion of each sample is then transferred to a K2EDTA tube, which is then shipped to a bioanalytical lab for concentration measurement using LC-MS/MS. The concentration data are then analyzed using Phoenix® WinNonlin software to obtain PK parameters. The obtained PK parameters are further summarized using analytical software.
Drug Administration and Dosage for Dose Escalation: H3B-6527 was administered orally QD or BID on a 21-day cycle. […] Patients in dose escalation phase were treated regardless of FGF19 status. Response determined by RECIST 1.1/modified RECIST every 6 weeks
Further collection and collation of the PK results of the trial of Example 2 at a later point in time are reflected in the following Table 5:
The results of further analysis of the PK data of the trial of Example 2 with the actual date and time of the dose administration and PK sampling after QC, an update from the results of a preliminary analysis with the nominal (i.e. planned) dosing/PK sampling date/time presented in Example 3, are reflected in the following Table 6. In this example the number of patients from which each PK parameter was calculated is shown, rather than the total number of patients receiving a particular dose and regimen as in Table 5.

[1] = 300 mg, 300 mg QD, fasted, Day 1, Table 5, nominal times
[2] = 300 mg, 300 mg QD, fasted, Day 1, Table 6, actual times after QC
[3] = 300 mg, 300 mg QD, fasted, Day 8, Table 5, nominal times
[4] = 300 mg, 300 mg QD, fasted, Day 8, Table 6, actual times after QC
[5] = 500 mg, 500 mg BID, fasted, Day 1, Table 5, nominal times
[6] = 500 mg, 500 mg BID, fasted, Day 1, Table 6, actual times after QC
[7] = 500 mg, 500 mg BID, fasted, Day 8, Table 5, nominal times
[8] = 500 mg, 500 mg BID, fasted, Day 8, Table 6, actual times after QC
[9] = 500 mg, 500 mg BID, fed, Day 1, Table 5, nominal times
[10] = 500 mg, 500 mg BID, fed, Day 1, Table 6, actual times after QC
[11] = 500 mg, 500 mg BID, fed, Day 8, Table 5, nominal times
[12] = 500 mg, 500 mg BID, fed, Day 8, Table 6, actual times after QC
[13] = 600 mg, 600 mg QD, fasted, Day 1, Table 5, nominal times
[14] = 600 mg, 600 mg QD, fasted, Day 1, Table 6, actual times after QC
[15] = 600 mg, 600 mg QD, fasted, Day 8, Table 5, nominal times
[16] = 600 mg, 600 mg QD, fasted, Day 8, Table 6, actual times after QC
[17] = 600 mg, 600 mg QD, fed, Day 1, Table 5, nominal times
[18] = 600 mg, 600 mg QD, fed, Day 1, Table 6, actual times after QC
[19] = 600 mg, 600 mg QD, fed, Day 8, Table 5, nominal times

C=CC(=O)Nc1cc(N2CCN(CC)CC2)ccc1Nc1cc(N(C)C(=O)Nc2c(Cl)c(OC)cc(OC)c2Cl)ncn1 [H3B-6527, N-(2-((6-(3-(2,6-dichloro-3,5-dimethoxyphenyl)-1-methylureido)pyrimidin-4-yl)amino)-5-(4-ethylpiperazin-1-yl)phenyl)acrylamide]
AUC, geometric mean (CV%) (300 mg QD, fasted, Day 1, Table 5, nominal times): 73 ng·h/mL | AUC, geometric mean (CV%) (300 mg QD, fasted, Day 8, Table 5, nominal times): 53 ng·h/mL | AUC, geometric mean (CV%) (500 mg BID, fasted, Day 1, Table 5, nominal times): 470 ng·h/mL | AUC, geometric mean (CV%) (500 mg BID, fasted, Day 8, Table 5, nominal times): 1200 ng·h/mL | AUC, geometric mean (CV%) (500 mg BID, fed, Day 1, Table 5, nominal times): 769 ng·h/mL | AUC, geometric mean (CV%) (500 mg BID, fed, Day 8, Table 5, nominal times): 1080 ng·h/mL | exposure in plasma across doses (500 mg to 2000 mg administered with food (FIG. 4)): appeared to be similar across the doses from 500 mg to 2000 mg | AUC, geometric mean (CV%) (600 mg QD, fasted, Day 1, Table 5, nominal times): 175 ng·h/mL | AUC, geometric mean (CV%) (600 mg QD, fasted, Day 8, Table 5, nominal times): 636 ng·h/mL | AUC, geometric mean (CV%) (600 mg QD, fed, Day 1, Table 5, nominal times): 1280 ng·h/mL | AUC, geometric mean (CV%) (600 mg QD, fed, Day 8, Table 5, nominal times): 502 ng·h/mL | AUC, geometric mean (CV%) (700 mg BID, fed, Day 1, Table 5, nominal times): 590 ng·h/mL | AUC, geometric mean (CV%) (700 mg BID, fed, Day 8, Table 5, nominal times): 640 ng·h/mL | AUC, geometric mean (CV%) (1000 mg QD, fasted, Day 1, Table 5, nominal times): 602 ng·h/mL | AUC, geometric mean (CV%) (1000 mg QD, fasted, Day 8, Table 5, nominal times): 912 ng·h/mL | AUC, geometric mean (CV%) (1000 mg QD, fed, Day 1, Table 5, nominal times): 1100 ng·h/mL | AUC, geometric mean (CV%) (1000 mg QD, fed, Day 8, Table 5, nominal times): 865 ng·h/mL | AUC, geometric mean (CV%) (1400 mg QD, fasted, Day 1, Table 5, nominal times): 400 ng·h/mL | AUC, geometric mean (CV%) (1400 mg QD, fasted, Day 8, Table 5, nominal times): 1450 ng·h/mL | AUC, geometric mean (CV%) (1400 mg QD, fed, Day 1, Table 5, nominal times): 5670 ng·h/mL | AUC, geometric mean (CV%) (1400 mg QD, fed, Day 8, Table 5, nominal times): 5450 ng·h/mL | AUC, geometric mean (CV%) (2000 mg QD, fed, Day 1, Table 5, nominal times): 3030 ng·h/mL | AUC, geometric mean (CV%) (2000 mg QD, fed, Day 8, Table 5, nominal times): 1920 ng·h/mL | minimal plasma concentration, BID versus QD schedule (Cycle 1, Day 8 (FIG. 1)): A higher minimal plasma concentration was maintained on the BID schedule | plasma levels / exposure versus dose (QD, fasted, Cycle 1, Day 8 (FIG. 1), preliminary PK analysis): increased with dose from 300 to 1000 mg QD and plateaued; also recorded: increased with dose up to 1000 mg QD | Cmax [1]: 20 ng/mL | half-life [1]: 1.4 h | Tmax [1]: 2 h | AUC [2]: 72.7 ng·h/mL | Cmax [2]: 20.3 ng/mL | half-life [2]: 2.52 h | Tmax [2]: 2 h | Cmax [3]: 11 ng/mL | half-life [3]: 1.2 h | Tmax [3]: 4 h | AUC [4]: 53 ng·h/mL | Cmax [4]: 10.8 ng/mL | half-life [4]: 3.55 h | Tmax [4]: 4 h | Cmax [5]: 124 ng/mL | half-life [5]: 1.9 h | Tmax [5]: 2.75 h | AUC [6]: 292 ng·h/mL | Cmax [6]: 124 ng/mL | half-life [6]: 2.41 h | Tmax [6]: 2.12 h | Cmax [7]: 253 ng/mL | half-life [7]: 1.8 h | Tmax [7]: 3.05 h | AUC [8]: 1110 ng·h/mL | Cmax [8]: 251 ng/mL | half-life [8]: 2.96 h | Tmax [8]: 4 h | Cmax [9]: 255 ng/mL | half-life [9]: 2.1 h | Tmax [9]: 4.02 h | AUC [10]: 768 ng·h/mL | Cmax [10]: 255 ng/mL | half-life [10]: 2.33 h | Tmax [10]: 4.02 h | Cmax [11]: 262 ng/mL | half-life [11]: 2.3 h | Tmax [11]: 4 h | AUC [12]: 814 ng·h/mL | Cmax [12]: 211 ng/mL | half-life [12]: 2.99 h | Tmax [12]: 4 h | Cmax [13]: 74 ng/mL | half-life [13]: 2.4 h | Tmax [13]: 1 h | AUC [14]: 175 ng·h/mL | Cmax [14]: 74.5 ng/mL | half-life [14]: 7.19 h | Tmax [14]: 1 h | Cmax [15]: 194 ng/mL | half-life [15]: 4.8 h | Tmax [15]: 0.52 h | AUC [16]: 636 ng·h/mL | Cmax [16]: 194 ng/mL | half-life [16]: 7.32 h | Tmax [16]: 0.52 h | Cmax [17]: 241 ng/mL | half-life [17]: 3.7 h | Tmax [17]: 4 h | AUC [18]: 1630 ng·h/mL | Cmax [18]: 395 ng/mL | half-life [18]: 3.72 h | Tmax [18]: 4 h | Cmax [19]: 100 ng/mL | half-life [19]: 3.2 h
